Measured values as given in patent publication US10173991B2, “Sulfone amide linked benzothiazole inhibitors of endothelial lipase” (BRISTOL-MYERS SQUIBB COMPANY, priority 2014, dated 2019).

Target: Endothelial lipase (EL) (Homo sapiens (Human), UniProt Q9Y5X9)
Assay: Endothelial lipase (EL) enzymatic assay with fluorescent substrate A10070 in DMPG vesicles
Assay type: biochemical
Method in brief: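 Vesicles prepared: A10070 dried with DMPG, resuspended in HEPES pH 8.0/NaCl/EDTA, sonicated on ice. Enzyme incubated with compound 30 min at 37° C. Reaction started with 1:10 diluted vesicles. Fluorescence (490/530 nm) followed 60 min; slope from 300–900 secs gives rate.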

Endothelial lipase (EL), sequence (Q9Y5X9 21-500): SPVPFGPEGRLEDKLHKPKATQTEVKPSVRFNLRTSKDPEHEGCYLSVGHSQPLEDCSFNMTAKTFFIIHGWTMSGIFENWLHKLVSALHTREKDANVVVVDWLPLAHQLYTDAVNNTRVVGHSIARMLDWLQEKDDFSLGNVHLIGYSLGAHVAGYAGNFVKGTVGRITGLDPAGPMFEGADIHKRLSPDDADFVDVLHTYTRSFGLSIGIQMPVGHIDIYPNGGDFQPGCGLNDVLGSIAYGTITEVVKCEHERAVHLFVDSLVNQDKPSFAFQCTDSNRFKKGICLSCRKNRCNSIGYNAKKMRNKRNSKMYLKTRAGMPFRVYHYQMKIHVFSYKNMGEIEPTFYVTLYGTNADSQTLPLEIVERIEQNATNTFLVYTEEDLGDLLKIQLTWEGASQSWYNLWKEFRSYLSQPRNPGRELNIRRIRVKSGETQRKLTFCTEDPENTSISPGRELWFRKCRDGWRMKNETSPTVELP

SMILES | IC50
COCCS(=O)(=O)C(C(=O)NCC(=O)NC1CC1)c1nc2cc(-c3cnc(-n4cccn4)nc3)c(F)cc2s1 (stereo not drawn) [Example 131, N-[(cyclopropyl-carbamoyl)methyl]-2-{6-fluoro-5-[2-(1H-pyrazol-1-yl)pyrimidin-5-yl]-1,3-benzothiazol-2-yl}-2-(2-methoxyethane-sulfonyl) acetamide] | 131 nM
COCCS(=O)(=O)C(C(=O)NCC(=O)NC1CC1)c1nc2cc(-c3ccc(-n4cnnn4)cc3)c(F)cc2s1 (stereo not drawn) [Example 132, N-[(cyclopropyl-carbamoyl)methyl]-2-{6-fluoro-5-[4-(1H-1,2,3,4-tetrazol-1-yl)phenyl]-1,3-benzothiazol-2-yl}-2-(2-methoxyethane-sulfonyl) acetamide] | 52 nM
COCCS(=O)(=O)C(C(=O)NCC(=O)NC1CC1)c1nc2cc(-c3cccc(-c4nnn[nH]4)c3)c(F)cc2s1 (stereo not drawn) [Example 133, N-[(cyclopropyl-carbamoyl)methyl]-2-{6-fluoro-5-[3-(1H-1,2,3,4-tetrazol-5-yl)phenyl]-1,3-benzothiazol-2-yl}-2-(2-methoxyethane-sulfonyl) acetamide] | 145 nM
COCCS(=O)(=O)C(C(=O)NCC(=O)NC1CC1)c1nc2cc(-c3cccc(C(=O)OC(C)(C)C)c3)ccc2s1 (stereo not drawn) [Example 134, tert-butyl 3-[2-({[(cyclopropyl-carbamoyl)methyl]carbamoyl}(2-methoxyethane-sulfonyl)methyl)-1,3-benzothiazol-5-yl]benzoate] | 2 nM
COCCS(=O)(=O)C(C(=O)NCC(=O)NC1CC1)c1nc2cc(-c3ccc(F)cc3)ccc2s1 (stereo not drawn) [Example 135, N-[(cyclopropyl-carbamoyl)methyl]-2-[5-(4-fluorophenyl)-1,3-benzothiazol-2-yl]-2-(2-methoxyethane-sulfonyl) acetamide] | 49 nM
O=C(CNC(=O)C(c1nc2cc(F)c(-c3ccn(Cc4ccccc4)c(=O)c3)cc2s1)S(=O)(=O)CCC(F)(F)F)NC1CC1 (stereo not drawn) [Example 136, 2-[6-(1-benzyl-2-oxo-1,2-dihydropyridin-4-yl)-5-fluoro-1,3-benzothiazol-2-yl]-N-[(cyclopropyl-carbamoyl)methyl]-2-(3,3,3-trifluoropropane-sulfonyl) acetamide] | 6 nM
O=C(CNC(=O)C(c1nc2cc(F)c(-c3cccc(-n4cccn4)c3)cc2s1)S(=O)(=O)CCC(F)(F)F)NC1CC1 (stereo not drawn) [Example 137, N-[(cyclopropyl-carbamoyl)methyl]-2-{5-fluoro-6-[3-(1H-pyrazol-1-yl)phenyl]-1,3-benzothiazol-2-yl}-2-(3,3,3-trifluoropropane-sulfonyl) acetamide] | 1 nM
O=C(CNC(=O)C(c1nc2cc(F)c(-c3ccc(-n4cccn4)cc3)cc2s1)S(=O)(=O)CCC(F)(F)F)NC1CC1 (stereo not drawn) [Example 138, N-[(cyclopropyl-carbamoyl)methyl]-2-{5-fluoro-6-[4-(1H-pyrazol-1-yl)phenyl]-1,3-benzothiazol-2-yl}-2-(3,3,3-trifluoropropane-sulfonyl) acetamide] | 6 nM
COCCS(=O)(=O)C(C(=O)NCC(=O)NC1CC1)c1nc2cc(F)c(-c3ccc(-n4cccn4)cc3)cc2s1 (stereo not drawn) [Example 139, N-[(cyclopropyl-carbamoyl)methyl]-2-{5-fluoro-6-[4-(1H-pyrazol-1-yl)phenyl]-1,3-benzothiazol-2-yl}-2-(2-methoxyethane-sulfonyl) acetamide] | 2 nM
COCCS(=O)(=O)C(C(=O)NCC(=O)NC1CC1)c1nc2cc(F)c(-c3cnc(OC)c(N)c3)cc2s1 (stereo not drawn) [Example 140] | 12 nM
COCCS(=O)(=O)C(C(=O)NCC(=O)NC1CC1)c1nc2cc(F)c(-c3cccc(-n4cccn4)c3)cc2s1 (stereo not drawn) [Example 141, N-[(cyclopropyl-carbamoyl)methyl]-2-{5-fluoro-6-[3-(1H-pyrazol-1-yl)phenyl]-1,3-benzothiazol-2-yl}-2-(2-methoxyethane-sulfonyl) acetamide] | 2 nM
O=C(CNC(=O)C(c1nc2cc(F)c(-c3ccc(-n4cnnn4)cc3)cc2s1)S(=O)(=O)CCC(F)(F)F)NC1CC1 (stereo not drawn) [Example 142, N-[(cyclopropyl-carbamoyl)methyl]-2-{5-fluoro-6-[4-(1H-1,2,3,4-tetrazol-1-yl)phenyl]-1,3-benzothiazol-2-yl}-2-(3,3,3-trifluoropropane-sulfonyl) acetamide] | 5 nM
O=C(CNC(=O)C(c1nc2cc(F)c(-c3cccc(-c4cc[nH]n4)c3)cc2s1)S(=O)(=O)CCC(F)(F)F)NC1CC1 (stereo not drawn) [Example 143, N-[(cyclopropyl-carbamoyl)methyl]-2-{5-fluoro-6-[3-(1H-pyrazol-3-yl)phenyl]-1,3-benzothiazol-2-yl}-2-(3,3,3-trifluoropropane-sulfonyl) acetamide] | 3 nM
O=C(CNC(=O)C(c1nc2cc(F)c(-c3ccc(-c4ccn[nH]4)cc3)cc2s1)S(=O)(=O)CCC(F)(F)F)NC1CC1 (stereo not drawn) [Example 144, N-[(cyclopropyl-carbamoyl)methyl]-2-{5-fluoro-6-[4-(1H-pyrazol-5-yl)phenyl]-1,3-benzothiazol-2-yl}-2-(3,3,3-trifluoropropane-sulfonyl) acetamide] | 1 nM
COCCS(=O)(=O)C(C(=O)NCC(=O)NC1CC1)c1nc2cc(F)c(-c3ccc(-c4ccno4)cc3)cc2s1 (stereo not drawn) [Example 145, N-[(cyclopropyl-carbamoyl)methyl]-2-{5-fluoro-6-[4-(1,2-oxazol-5-yl)phenyl]-1,3-benzothiazol-2-yl}-2-(2-methoxyethane-sulfonyl) acetamide] | 3 nM
COCCS(=O)(=O)C(C(=O)NCC(=O)NC1CC1)c1nc2cc(F)c(-c3ccc(-c4nn[nH]n4)cc3)cc2s1 (stereo not drawn) [Example 146, N-[(cyclopropyl-carbamoyl)methyl]-2-{5-fluoro-6-[4-(2H-1,2,3,4-tetrazol-5-yl)phenyl]-1,3-benzothiazol-2-yl}-2-(2-methoxyethane-sulfonyl)acetamide] | 6 nM
COCCS(=O)(=O)C(C(=O)NCC(=O)NC1CC1)c1nc2cc(F)c(-c3ccc(-c4nnc(C)o4)cc3)cc2s1 (stereo not drawn) [Example 147, N-[(cyclopropyl-carbamoyl)methyl]-2-{5-fluoro-6-[4-(5-methyl-1,3,4-oxadiazol-2-yl)phenyl]-1,3-benzothiazol-2-yl}-2-(2-methoxyethane-sulfonyl) acetamide] | 4 nM
COCCS(=O)(=O)C(C(=O)NCC(=O)NC1CC1)c1nc2cc(C)c(-c3ccc4c(cnn4C)c3)cc2s1 (stereo not drawn) [Example 148, N-[(cyclopropyl-carbamoyl)methyl]-2-(2-methoxyethane-sulfonyl)-2-[5-methyl-6-(1-methyl-1H-indazol-5-yl)-1,3-benzothiazol-2-yl] acetamide] | 2 nM
COCCS(=O)(=O)C(C(=O)NCC(=O)NC1CC1)c1nc2cc(F)c(-c3ccc4[nH]c(=O)ccc4c3)cc2s1 (stereo not drawn) [Example 149, N-[(cyclopropyl-carbamoyl)methyl]-2-[5-fluoro-6-(2-oxo-1,2-dihydroquinolin-6-yl)-1,3-benzothiazol-2-yl]-2-(2-methoxyethane-sulfonyl) acetamide] | 2 nM
COCCS(=O)(=O)C(C(=O)NCC(=O)NC1CC1)c1nc2cc(F)c(-c3ccc4c(c3)CNC4=O)cc2s1 (stereo not drawn) [Example 150, N-[(cyclopropyl-carbamoyl)methyl]-2-[5-fluoro-6-(1-oxo-2,3-dihydro-1H-isoindol-5-yl)-1,3-benzothiazol-2-yl]-2-(2-methoxyethane-sulfonyl) acetamide] | 2 nM
COCCS(=O)(=O)C(C(=O)NCC(=O)NC1CC1)c1nc2cc(C)c(-c3ccc4[nH]c(=O)ccc4c3)cc2s1 (stereo not drawn) [Example 151, N-[(cyclopropyl-carbamoyl)methyl]-2-(2-methoxyethane-sulfonyl)-2-[5-methyl-6-(2-oxo-1,2-dihydroquinolin-6-yl)-1,3-benzothiazol-2-yl]acetamide] | 2 nM
COCCS(=O)(=O)C(C(=O)NCC(=O)NC1CC1)c1nc2cc(F)c(-c3ccc4c(cnn4C)c3)cc2s1 (stereo not drawn) [Example 152, N-[(cyclopropyl-carbamoyl)methyl]-2-[5-fluoro-6-(1-methyl-1H-indazol-5-yl)-1,3-methoxyethane-sulfonyl) acetamide] | 3 nM
COCCS(=O)(=O)C(C(=O)NCC(=O)NC1CC1)c1nc2cc(F)c(-c3ccc4c(=O)n(C)ccc4c3)cc2s1 (stereo not drawn) [Example 153, N-[(cyclopropyl-carbamoyl)methyl]-2-[5-fluoro-6-(2-methyl-1-oxo-1,2-dihydro-isoquinolin-6-yl)-1,3-benzothiazol-2-yl]-2-(2-methoxyethane-sulfonyl) acetamide] | 3 nM
COCCS(=O)(=O)C(C(=O)NCC(=O)NC1CC1)c1nc2cc(F)c(-c3ccc4c(c3)C(=O)NC4)cc2s1 (stereo not drawn) [Example 154, N-[(cyclopropyl-carbamoyl)methyl]-2-[5-fluoro-6-(3-oxo-2,3-dihydro-1H-isoindol-5-yl)-1,3-benzothiazol-2-yl]-2-(2-methoxyethane-sulfonyl) acetamide] | 5 nM
COCCS(=O)(=O)C(C(=O)NCC(=O)NC1CC1)c1nc2cc(F)c(-c3cnc(C4CC4)nc3)cc2s1 (stereo not drawn) [Example 155, N-[(cyclopropyl-carbamoyl)methyl]-2-[6-(2-cyclopropyl-pyrimidin-5-yl)-5-fluoro-1,3-benzothiazol-2-yl]-2-(2-methoxyethane-sulfonyl) acetamide] | 7 nM
COCCS(=O)(=O)C(C(=O)NCC(=O)NC1CC1)c1nc2cc(F)c(-c3cnc(C)nc3)cc2s1 (stereo not drawn) [Example 156, N-[(cyclopropyl-carbamoyl)methyl]-2-[5-fluoro-6-(2-methylpyrimidin-5-yl)-1,3-benzothiazol-2-yl]-2-(2-methoxyethane-sulfonyl) acetamide] | 11 nM
COCCS(=O)(=O)C(C(=O)NCC(=O)NC1CC1)c1nc2cc(C(F)(F)F)c(-c3cccc(C(=O)N(C)C)c3)cc2s1 (stereo not drawn) [Example 157, 3-[2-({[(cyclopropyl-carbamoyl)methyl]carbamoyl}(2-methoxyethane-sulfonyl)methyl)-5-(trifluoromethyl)-1,3-benzothiazol-6-yl]-N,N-dimethylbenzamide] | 11 nM
